Source: patent publication US20240390316A1 (SHENZHEN TECHNOLOGY UNIVERSITY, priority 2022, published 2024)
Counter-ions that a name gives are not always drawn.

Key:
[1] = tested on: CVB1; conditions: Coxsackievirus B type 1; CPE in vitro
Procedure: 72 hours later, the degree of a cytopathic effect was detected by an AlamarBlue fluorescent reagent, and an inhibition rate was calculated by using a formula.

[2] = Vero cytotoxicity test; type: cell-based; conditions: African green monkey; Vero cells; mean ± standard deviation of three groups of parallel tests
Procedure: A cytotoxicity test of CVB1, CVB2 and CVB3 on Vero cells was carried out with three groups of parallel tests, respectively, and Table 1 was obtained.

[3] = tested on: enterovirus type 71 (BrCr/C4 subtype); experiment: Antiviral activity against enterovirus type 71 (CPE in vitro); type: cell-based
Procedure: (§1) Test 3: In vitro anti-CVB1, anti-CVB2, anti-CVB3, anti-CVA16, anti-EV71 BrCr and anti-EV71-C2 virus models of Vero cells (cell quantity: 1.5×10^4 cells per well) were established, respectively. […] An inhibition rate and a standard deviation were measured by an AlamarBlue test in three parallel tests.

[4] = tested on: Coxsackievirus A (6/10/16 subtype); experiment: Antiviral activity against Coxsackievirus A (CPE in vitro); type: cell-based
Procedure: as §1

[5] = tested on: Coxsackievirus B; experiment: Inhibition rate at 25 μM in virus-infected Vero cells (AlamarBlue); type: cell-based; conditions: 72 hours, FIG. 3
Procedure: as §1

[6] = tested on: CVB1; experiment: Progeny virus yield of CVB1 in Vero cells (supernatant titrated by plaque reduction test); type: cell-based, Coxsackievirus B1 (CVB1); conditions: 0.02 MOI CVB1, Vero cells, 72 hours, FIG. 4c
Procedure: After culture for 72 hours, a supernatant was titrated by a plaque reduction test, and results were obtained from three groups of parallel tests.

[7] = tested on: CVB1; experiment: Time process test (administration time after infection); type: cell-based, Coxsackievirus B1 (CVB1); conditions: different administration times, FIG. 5
[8] = tested on: CVB2; conditions: Coxsackievirus B type 2; CPE in vitro
[9] = tested on: CVB3; conditions: Coxsackievirus B type 3; CPE in vitro

With `CN(C)CCC=C1c2ccccc2COc2ccccc21` [doxepin hydrochloride] the “antiviral activity (in words)” value [1] was “strong antiviral activity”, the CC50 [2] was 90.7 ± 16.4 µM and the “antiviral activity (in words)” value [3] was “does not have any antiviral activity”. For the same compound, the “antiviral activity (in words)” value [4] was “does not have any antiviral activity”, the “activity spectrum from inhibition rate (in words)” value [5] was “broad-spectrum activity against Coxsackievirus B” and the “progeny yield of CVB1 (in words)” value [6] was “inhibited the progeny yield of CVB1”. The “stage of infection cycle inhibited (in words)” value [7] was “inhibits virus replication at an early stage of an infection cycle”, the “antiviral activity (in words)” value [8] was “strong antiviral activity” and the “antiviral activity (in words)” value [9] was “strong antiviral activity”.
